Usually IC50 stands for the midpoint of a concentration-inhibition curve.

This is an account of results in patent US5491166A, “Inhibitors of HIV protease useful for the treatment of AIDS” (Eli Lilly and Company, priority 1992, dated 1996).

For the first test, the target named is T1, HIV-1 protease (Human immunodeficiency virus type 1 group M subtype B, UniProt P04585).
T1 construct: Purified HIV-1 protease was obtained as described above; made in house; host or cells: E. coli K12 L507/pHP10D
The test is described as follows: biochemical. As to conditions: All values normalized to a positive control; 1 h pre-incubation, 16 h with substrate at room temperature; *concentration of the compound was not increased above the reported concentration. The procedure: A culture of E. coli K12 L507/pHP10D was grown to mid-log phase at 32° C. in LB media containing 12.5 μg/ml tetracycline. The cultivation temperature was quickly elevated to 40° C. to induce gene expression, and the cells were allowed to grow for 2.5 hours at this temperature before the culture was quickly chilled on ice. The cells were centrifuged and the cell pellet was resuspended in 20 mL 50 mmol MES buffer (pH 6.0) containing 1 mmol EDTA, 1 mmol DTT, 1 mmol PMSF and 10% glycerol ("Buffer A"). Cells were lysed by sonication using a Fischer Model 300 Dismembrator and a microtip probe. Following centrifugation at 27,000×g, the supernatant was diluted to a total volume of 60 mL with Buffer A and loaded onto a 2.0×19 cm QAE-Sepharose column (1 mL/min, 4° C.), that had been equilibrated in Buffer A. The column was washed isocratically for 180 min and then eluted with a gradient eluent of 0-1.0M sodium chloride in Buffer A over 120 min. Enzymatic activity was measured by HPLC using the synthetic peptide SQNYPIV as described in Margolin et al., Biochem, Biophys. Res. Commun., 167, 554-560 (1990); the production of the p1 peptide (SQNY) was measured.
The active fractions were combined, made 1.2M in ammonium sulfate, and applied to a 2.0×18 cm hexyl agarose column that had been equilibrated in Buffer A containing 1.2M ammonium sulfate. The sample was loaded at a flow rate of 1 mL/min at 4° C., washed with the equilibration buffer for 240 min (1 mL/min) and then eluted using a reverse linear gradient of 1.2-0M ammonium sulfate in Buffer A for 120 min at the same flow rate. The column was then washed isocratically in Buffer A for 120 min.
The active fractions were combined, concentrated to 10 mL using an Amicon stirred cell with a YM-10 membrane and then applied to a MonoS cation exchange column (1.0×10 cm) that had been equilibrated in Buffer A. The sample was loaded at a flow rate of 1 mL/min at 25° C. After washing isocratically for 30 min, the protease was eluted using a linear gradient of 0-0.45M sodium chloride in Buffer A over 40 min.. The column was washed isocratically in Buffer A containing 0.45M sodium chloride for 30 min.
The active fractions were combined and concentrated to 200 μL using an Amicon stirred cell and a YM-10 membrane and then the protease was applied to a Superose 6 size exclusion column equilibrated in Buffer A containing 0.1M sodium chloride.
The purified peptide was labeled with a fluorescent marker at the C-terminal end for use in the Pandex assay. N^α -Biotin-[…]OH (1.206 g, 0.936 mmol) was dissolved in 100 mL of 0.1M sodium borate, pH 9.5. Then, a solution of 3 g (7.7 mmol) of fluorescein isothiocyanate in 15 mL dimethyl sulfoxide was added to the reaction mixture in 10 equal portions over two hours. The resulting mixture was allowed to react for one hour after the final addition. The solution was adjusted to pH 3 using 5N HCl, resulting in the formation of a precipitate which was removed by centrifugation.
The following buffers and solutions are used in the Fluorescence HIV-1 Protease Inhibitor Assay:
0.05M 4-morpholineethane sulfonic acid, pH 5.5
0.1% solution of Fluoricon Avidin Assay Particles (Avidin conjugated to solid polystyrene beads, 0.6-0.8 microns in diameter in TBSA Buffer
27 IU/mL of purified HIV-1 protease in MES-ALB buffer (1 IU equals the amount of enzyme required to hydrolyze 1 μmole of substrate per minute at 37° C.
To each well of a round bottom, 96-well plate is added 20 μL of the Enzyme Solution followed by 10 μL of the compound to be evaluated in a 20% aqueous dimethylsulfoxide solution. Purified HIV-1 protease was obtained as described above.
Regarding `CC(C)(C)NC(=O)c1ccccc1C[C@@H](O)[C@H](Cc1ccccc1)NC(=O)[C@@H](CC(=O)OCc1ccccc1)NC(=O)OCc1ccccc1` (relative stereo) [Example 9, [2R-(2R *, 3S*, 6R*)]-N-t-Butyl-2-[2-hydroxy-3-phenylmethyl-4-aza-5-oxo-6-N(benzyloxycarbonyl)amino-7-benzyloxycarbonyl]heptyl benzamide], the “Fluorescence Assay IC50” value is > 1 µg/mL. On the same count and under the same terms, for “[2R-(2R*, 3S*, 6S*)]-N-t-Butyl-2-[2-hydroxy-3-phenylmethyl-4,7-diaza-5,8-dioxo-6-cyanomethyl-9-N(methyl)aza-10-quinolin-2-yl]decyl benzamide [Example 4]” the value was 0.0012 µg/mL.

The test is the same for the next values; noted with them: read-out: Fluorescence Assay IC8.
On to `CC(C)(C)NC(=O)c1ccccc1C[C@@H](O)[C@H](Cc1ccccc1)NC(=O)[C@@H](CC(=O)OCc1ccccc1)NC(=O)OC(C)(C)C` [Example 11, [2R-(2R *, 3S*, 6S*)]-N-t-butyl-2-[2-hydroxy-3-phenylmethyl-4-aza-5-oxo-6-N(t-butoxycarbonyl)amino-7-benzyloxycarbonyl]heptyl benzamide], for which the IC8 came out at 1 µg/mL.

The same test, now with this note: read-out: Fluorescence Assay IC50 (converted).
Regarding `CC(C)(C)NC(=O)c1ccccc1C[C@@H](O)[C@H](Cc1ccccc1)NC(=O)[C@H](CC#N)NC(=O)NCc1cccc2ccccc12` (relative stereo) [Example 1, [2R-(2R*, 3S*, 6S*)]-N-t-Butyl-2-[2-hydroxy-3-phenylmethyl-4,7,9-triaza-5,8-dioxo-6-cyanomethyl-10-naphth-1-yl]decyl benzamide], the IC50 is 0.645 nM. The same measure, in the same setting: for `CN1Cc2ccccc2CC1C(=O)N[C@@H](CC#N)C(=O)N[C@@H](Cc1ccccc1)[C@H](O)Cc1ccccc1C(=O)NC(C)(C)C` (relative stereo) [Example 3, R-(2R *, 3S*, 6S*)-N-t-Butyl-2-[2-hydroxy-3-phenylmethyl-4,7-diaza-5,8-dioxo-6-cyanomethyl-8-(2-methyl-1,2,3,4-tetrahydroisoquinolin-3-yl]octylbenzamide] the value was 89.5 nM; for `CN(C)CCNC(=O)C[C@H](NC(=O)c1ccc2ccccc2n1)C(=O)N[C@@H](Cc1ccccc1)[C@H](O)Cc1ccccc1C(=O)NC(C)(C)C` (relative stereo) [Example 15, [2R -(2R*,3S*,6S*)]-N-t-Butyl-2-[2-hydroxy-3-phenylmethyl-4-aza-5,8-dioxo-6-N(quinolin-2-ylcarbonyl)amino-8-N(2-(N, N-dimethylamino)ethyl)amino]octyl benzamide], 2.79 nM; for `CC(C)(C)NC(=O)c1ccccc1C[C@@H](O)[C@H](Cc1ccccc1)NC(=O)[C@H](CC#N)NC(=O)c1ccc2ccccc2n1` [Example 2, [2R-(2R *, 3S*, 6S*)]-N-t-Butyl-2-[2-hydroxy-3-phenylmethyl-4,7-diaza-5,8-dioxo-6-cyanomethyl-8-quinolin-2-yl]octyl benzamide], 1.86 nM.

Turning to `CC(C)(C)NC(=O)c1ccccc1C[C@@H](O)[C@H](Cc1ccccc1)NC(=O)[C@H](CC(=O)OCc1ccccc1)NC(=O)OCc1ccccc1` [Example 6, [2R-(2R*, 3S*, 6S*)]-N-t-Butyl-2-[2-hydroxy-3-phenylmethyl-4-aza-5-oxo-6-N(benzyloxycarbonyl)amino-7-benzyloxycarbonyl]heptyl benzamide], the half-maximal inhibitory concentration (IC50) was 10.6 nM. Still for that read-out and setting: for `CC(C)(C)NC(=O)c1ccccc1C[C@@H](O)[C@H](Cc1ccccc1)NC(=O)[C@H](CC(=O)OCc1ccccc1)NC(=O)c1ccc2ccccc2n1` [Example 7, [2R-(2R*,3S*,6S*)]-N-t-Butyl-2-[2-hydroxy-3-phenylmethyl-4-aza-5-oxo-6-N(quinolin-2-ylcarbonyl)amino-7-benzyloxycarbony]heptyl benzamide] the value was 0.856 nM.

With `CC(C)(C)NC(=O)c1ccccc1C[C@@H](O)[C@H](Cc1ccccc1)NC(=O)[C@@H](CC(=O)OCc1ccccc1)NC(=O)c1ccc2ccccc2n1` [Example 8, [2R-(2R*,3S*,6R*)]-N-t-Butyl-2-[2-hydroxy-3-phenylmethyl-4-aza-5-oxo-6-N(quinolin-2-ylcarbonyl)amino-7-benzyloxycarbonyl]heptyl benzamide], the IC50 is > 1430 nM. The same measure, in the same setting: for `CC(C)(C)NC(=O)c1ccccc1C[C@@H](O)[C@H](Cc1ccccc1)NC(=O)[C@H](CC(=O)OCc1ccccn1)NC(=O)c1ccc2ccccc2n1` [Example 10, [2R-(2R*,3S*,6S*)]-N-t-Butyl-2-[2-hydroxy-3-phenylmethyl-4-aza-5-oxo-6-N(quinolin-2-ylcarbonyl)amino-7-(pyrid-2-ylmethoxycarbonyl)]heptyl benzamide] the value was 1.85 nM. Same read-out and setting: for `CONC(=O)C[C@H](NC(=O)c1ccc2ccccc2n1)C(=O)N[C@@H](Cc1ccccc1)[C@H](O)Cc1ccccc1C(=O)NC(C)(C)C` [Example 12, [2R-(2R*, 3S*, 6S*)]-N-t-Butyl-2-[2-hydroxy-3-phenylmethyl-4-aza-5-oxo-6-N(quinolin-2-ylcarbonyl)amino-8-N(methoxy)carbamoyl]heptyl benzamide] the value was 0.782 nM; for `CC(C)(C)NC(=O)c1ccccc1C[C@@H](O)[C@H](Cc1ccccc1)NC(=O)[C@H](CC(=O)NN)NC(=O)c1ccc2ccccc2n1` [Example 13, [2R-(2R*, 3S*, 6S*)]-N-t-Butyl-2-[2-hydroxy-3-phenylmethyl-4-aza-5,8-dioxo-6-N(quinolin-2-ylcarbonyl)amino-8-hydrazino]octyl benzamide], 1.12 nM. The same measure, in the same setting: for `CC(C)(C)NC(=O)c1ccccc1C[C@@H](O)[C@H](Cc1ccccc1)NC(=O)[C@H](CS(N)(=O)=O)NC(=O)c1ccc2ccccc2n1` [Example 14, [2R-(2R*,3S*,6R*)]-N-t-Butyl-2-[2-hydroxy-3-phenylmethyl-4-aza-5-oxo-6-N(quinolin-2-ylcarbonyl)amino-7-aminosulfonyl]heptyl benzamide] the value was 4.18 nM.
